# Test results taken from ChEMBL document CHEMBL1136287, “Synthesis and testing of novel phenyl substituted side-chain analogues of classical cannabinoids” (Bioorg Med Chem Lett, 2003).
# Columns and labels:
# [1] = target: T1, Cannabinoid receptor 1 (Homo sapiens, UniProt P21554); assay: Binding affinity towards Cannabinoid receptor 1
# [2] = target: T2, Cannabinoid receptor 2 (Homo sapiens, UniProt P34972); assay: Binding affinity towards Cannabinoid receptor 2
# [3] = target: T1, Cannabinoid receptor 1; assay: Binding affinity towards Cannabinoid receptor 1 using CP-55940 as radioligand in HEK293 EBNA cells; assay type: cell-based
# [4] = target: T2, Cannabinoid receptor 2; assay: Binding affinity towards Cannabinoid receptor 2 using CP-55940 as radioligand in HEK293 EBNA cells; assay type: cell-based
# T2 sequence (P34972 whole entry): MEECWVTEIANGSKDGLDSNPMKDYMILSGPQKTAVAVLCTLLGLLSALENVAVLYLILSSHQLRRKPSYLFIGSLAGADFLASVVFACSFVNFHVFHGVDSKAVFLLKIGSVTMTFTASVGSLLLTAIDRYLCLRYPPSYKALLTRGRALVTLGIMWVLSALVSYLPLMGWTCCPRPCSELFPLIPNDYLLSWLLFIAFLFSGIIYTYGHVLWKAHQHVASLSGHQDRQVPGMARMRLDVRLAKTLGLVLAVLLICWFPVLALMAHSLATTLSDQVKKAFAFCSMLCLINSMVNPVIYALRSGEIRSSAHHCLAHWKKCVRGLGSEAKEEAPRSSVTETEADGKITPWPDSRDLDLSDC
# T1 sequence (P21554 whole entry): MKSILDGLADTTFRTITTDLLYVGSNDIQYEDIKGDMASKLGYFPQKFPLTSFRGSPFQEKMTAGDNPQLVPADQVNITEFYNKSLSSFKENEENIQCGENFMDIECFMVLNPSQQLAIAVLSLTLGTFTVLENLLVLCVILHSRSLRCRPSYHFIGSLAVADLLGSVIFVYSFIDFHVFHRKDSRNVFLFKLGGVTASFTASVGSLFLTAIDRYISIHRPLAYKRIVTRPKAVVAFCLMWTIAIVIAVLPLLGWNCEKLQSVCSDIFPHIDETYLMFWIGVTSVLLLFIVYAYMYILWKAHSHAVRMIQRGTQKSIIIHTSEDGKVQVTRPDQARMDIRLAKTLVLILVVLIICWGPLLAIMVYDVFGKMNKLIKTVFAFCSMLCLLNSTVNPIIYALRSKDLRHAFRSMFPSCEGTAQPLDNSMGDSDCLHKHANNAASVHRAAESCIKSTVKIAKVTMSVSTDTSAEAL
SMILES,Ki [1] [nM],Ki [2] [nM],Ki [3] [nM],Ki [4] [nM]
CC1=CC[C@@H]2[C@@H](C1)c1c(O)cc(C3(C4CCCCC4)SCCS3)cc1OC2(C)C,1.86,1.05,,
CC1=CC[C@@H]2[C@@H](C1)c1c(O)cc(C3(c4ccccc4)SCCS3)cc1OC2(C)C,,,17.3,17.6
CC1=CC[C@@H]2[C@@H](C1)c1c(O)cc(C(C)(C)C3CCCCC3)cc1OC2(C)C,,,0.57,0.65
CC1=CC[C@@H]2[C@@H](C1)c1c(O)cc(C(C)(C)c3ccccc3)cc1OC2(C)C,,,12.3,0.91
CC1=CC[C@@H]2[C@@H](C1)c1c(O)cc(Cc3ccccc3)cc1OC2(C)C,,,67.6,85.9
